Assay results as given in ChEMBL document CHEMBL1201862, “PubChem BioAssay data set” (2004).
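96-well plates; 48 h exposure; 5 concentrations. Endpoints by linear interpolation between flanking doses. Not reached: highest tested concentration assigned. GI50 marks 50% less growth.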 Calls of active or inactive are those of the source. No stated cut-off is given here; in the data, active = GI50 up to about 1.1 µM and inactive = higher.

Columns and labels:
Assay in all cases: DTP human tumour cell line panel, 48 h
[1] = test system: COLO 205
[2] = test system: HCT-116
[3] = test system: HCT-15
[4] = test system: HL-60
[5] = test system: HT-29
[6] = test system: K562
[7] = test system: M14
[8] = test system: Malme-3M
[9] = test system: NCI-H522
[10] = test system: OVCAR-4
[11] = test system: SF-295
[12] = test system: SK-OV-3
[13] = test system: SW-620
[14] = test system: U-251
[15] = test system: UACC-62
[16] = test system: A498
[17] = test system: SNB-19

Structure (SMILES)	GI50 [1]	GI50 [2]	GI50 [3] [µM]	GI50 [4]	GI50 [5]	GI50 [6]	GI50 [7]	GI50 [8]	GI50 [9]	GI50 [10]	GI50 [11]	GI50 [12]	GI50 [13]	GI50 [14]	GI50 [15]	GI50 [16]	GI50 [17]
C(=C1/CCCCC([n+]2ccccc2)=N1)/c1ccccc1	> 100 µM (inactive)	> 100 µM (inactive)	> 100	> 100 µM (inactive)	> 100 µM (inactive)	> 100 µM (inactive)	> 100 µM (inactive)	> 100 µM (inactive)	> 100 µM (inactive)	> 100 µM (inactive)	> 100 µM (inactive)	> 100 µM (inactive)	> 100 µM (inactive)	> 100 µM (inactive)	> 100 µM (inactive)	–	–
COc1ccc2[nH]c3c(c2c1)CCN(C)CC3	> 100 µM (inactive)	> 100 µM (inactive)	> 100	71.8 µM (inactive)	> 100 µM (inactive)	> 100 µM (inactive)	> 100 µM (inactive)	> 100 µM (inactive)	–	45.3 µM (inactive)	> 100 µM (inactive)	> 100 µM (inactive)	> 100 µM (inactive)	> 100 µM (inactive)	> 100 µM (inactive)	> 100 µM (inactive)	> 100 µM (inactive)
Cc1cccc(C)c1NC(=O)C(=O)C(C#N)c1ccccc1Cl (stereo not given)	> 100 µM (inactive)	> 100 µM (inactive)	> 100	80.2 µM (inactive)	> 100 µM (inactive)	> 100 µM (inactive)	> 100 µM (inactive)	> 100 µM (inactive)	> 100 µM (inactive)	> 100 µM (inactive)	> 100 µM (inactive)	> 100 µM (inactive)	> 100 µM (inactive)	> 100 µM (inactive)	> 100 µM (inactive)	> 100 µM (inactive)	> 100 µM (inactive)
CCOCc1cc(=O)c2c(OC)cc3c(c2o1)CCC(C)(C)O3	–	> 100 µM (inactive)	> 100	> 100 µM (inactive)	> 100 µM (inactive)	> 100 µM (inactive)	> 100 µM (inactive)	> 100 µM (inactive)	> 100 µM (inactive)	> 100 µM (inactive)	> 100 µM (inactive)	> 100 µM (inactive)	> 100 µM (inactive)	> 100 µM (inactive)	> 100 µM (inactive)	–	–
O=C1c2ccccc2C(=O)c2c(O)c(NCCNCCO)cc(O)c21	–	2.3 µM (inactive)	3.64	4.69 µM (inactive)	3.23 µM (inactive)	2.75 µM (inactive)	4.42 µM (inactive)	12.1 µM (inactive)	–	2.99 µM (inactive)	10.2 µM (inactive)	–	2.79 µM (inactive)	–	11.5 µM (inactive)	7.26 µM (inactive)	1.75 µM (inactive)
Cc1ccc(S(=O)(=O)Nc2ccccc2C(C)(C)C)cc1	–	15.2 µM (inactive)	20.7	16.8 µM (inactive)	16.2 µM (inactive)	18 µM (inactive)	> 10 µM (inactive)	30.6 µM (inactive)	–	25.6 µM (inactive)	13.7 µM (inactive)	30.5 µM (inactive)	32.3 µM (inactive)	20.6 µM (inactive)	16.1 µM (inactive)	24 µM (inactive)	–
O=[N+]([O-])c1ccc(C[P+](c2ccccc2)(c2ccccc2)c2ccccc2)cc1	25.4 µM (inactive)	36.5 µM (inactive)	81.5	27.2 µM (inactive)	32.9 µM (inactive)	70.8 µM (inactive)	56.9 µM (inactive)	37.8 µM (inactive)	32.7 µM (inactive)	–	> 100 µM (inactive)	> 100 µM (inactive)	88.3 µM (inactive)	31.7 µM (inactive)	32.1 µM (inactive)	> 100 µM (inactive)	> 100 µM (inactive)
CCOC(=O)C1CC/C(=C(/C#N)C(=O)OC)N1 (stereo not given)	> 100 µM (inactive)	> 100 µM (inactive)	> 100	> 100 µM (inactive)	–	> 100 µM (inactive)	> 100 µM (inactive)	–	> 100 µM (inactive)	> 100 µM (inactive)	> 100 µM (inactive)	57.7 µM (inactive)	> 100 µM (inactive)	> 100 µM (inactive)	31.8 µM (inactive)	> 100 µM (inactive)	> 100 µM (inactive)
C=CC[C@H](C[C@H](C[C@H](C[C@H](C[C@H](C[C@H](C[C@H](C[C@H](C[C@H](C[C@H](CCCCC)OC)OC)OC)OC)OC)OC)OC)OC)OC)OC	> 100 µM (inactive)	82.6 µM (inactive)	–	52.5 µM (inactive)	> 100 µM (inactive)	70.3 µM (inactive)	> 100 µM (inactive)	> 100 µM (inactive)	66.2 µM (inactive)	> 100 µM (inactive)	> 100 µM (inactive)	> 100 µM (inactive)	> 100 µM (inactive)	> 100 µM (inactive)	> 100 µM (inactive)	85.7 µM (inactive)	83.2 µM (inactive)
COCc1c(CO)cnc(C)c1OC1OC(CO)C(O)C(O)C1O (stereo not given)	–	> 100 µM (inactive)	> 100	–	> 100 µM (inactive)	> 100 µM (inactive)	> 100 µM (inactive)	> 100 µM (inactive)	> 100 µM (inactive)	> 100 µM (inactive)	> 100 µM (inactive)	> 100 µM (inactive)	> 100 µM (inactive)	> 100 µM (inactive)	> 100 µM (inactive)	> 100 µM (inactive)	> 100 µM (inactive)
Clc1ccc2nc(-c3ccccc3)nc(Cl)c2c1	> 100 µM (inactive)	73.6 µM (inactive)	> 100	12.5 µM (inactive)	> 100 µM (inactive)	> 100 µM (inactive)	–	24.2 µM (inactive)	–	–	46.3 µM (inactive)	12.3 µM (inactive)	> 100 µM (inactive)	68.1 µM (inactive)	49.8 µM (inactive)	> 100 µM (inactive)	69.2 µM (inactive)
Nc1cc(=O)n(-c2ccccc2)c(=S)n1-c1ccccc1	> 100 µM (inactive)	> 100 µM (inactive)	> 100	–	> 100 µM (inactive)	> 100 µM (inactive)	> 100 µM (inactive)	> 100 µM (inactive)	> 100 µM (inactive)	–	> 100 µM (inactive)	> 100 µM (inactive)	> 100 µM (inactive)	> 100 µM (inactive)	> 100 µM (inactive)	> 100 µM (inactive)	> 100 µM (inactive)
Oc1ccc([Te]CCNCC[Te]c2ccc(O)cc2)cc1	7.13 µM (inactive)	5.96 µM (inactive)	–	5.55 µM (inactive)	15.6 µM (inactive)	10 µM (inactive)	17.6 µM (inactive)	22.6 µM (inactive)	–	–	4.32 µM (inactive)	25 µM (inactive)	23.1 µM (inactive)	6.22 µM (inactive)	17 µM (inactive)	13.4 µM (inactive)	40.9 µM (inactive)
CC(C)(C=O)CC(C#N)/C(=N\NC(N)=O)C(=O)Nc1ccccc1C(N)=O (stereo not given)	–	> 100 µM (inactive)	> 100	> 100 µM (inactive)	> 100 µM (inactive)	> 100 µM (inactive)	> 100 µM (inactive)	> 100 µM (inactive)	> 100 µM (inactive)	> 100 µM (inactive)	> 100 µM (inactive)	> 100 µM (inactive)	> 100 µM (inactive)	> 100 µM (inactive)	> 100 µM (inactive)	> 100 µM (inactive)	> 100 µM (inactive)
O=C(O)c1cc(=O)c2[nH]c3ccccc3c2s1	> 100 µM (inactive)	–	> 100	> 100 µM (inactive)	–	> 100 µM (inactive)	> 100 µM (inactive)	> 100 µM (inactive)	> 100 µM (inactive)	> 100 µM (inactive)	> 100 µM (inactive)	> 100 µM (inactive)	> 100 µM (inactive)	–	> 100 µM (inactive)	–	> 100 µM (inactive)
COc1ccc(C[C@H](N)C(=O)NC2C(CO)OC(n3cnc4c(N(C)C)ncnc43)C2O)cc1 (stereo not given in full)	0.154 µM (active)	0.115 µM (active)	2.86	0.141 µM (active)	0.262 µM (active)	0.133 µM (active)	0.378 µM (active)	0.524 µM (active)	–	0.389 µM (active)	0.34 µM (active)	0.395 µM (active)	0.143 µM (active)	0.0297 µM (active)	0.152 µM (active)	1.04 µM (active)	–
CCc1cccc(C(C)C)c1NC(=O)C(=O)C(Cc1nc2ccccc2nc1O)C(=O)OC (stereo not given)	43.8 µM (inactive)	40.7 µM (inactive)	> 100	> 100 µM (inactive)	95.3 µM (inactive)	> 100 µM (inactive)	> 100 µM (inactive)	> 100 µM (inactive)	98.4 µM (inactive)	> 100 µM (inactive)	> 100 µM (inactive)	> 100 µM (inactive)	–	> 100 µM (inactive)	> 100 µM (inactive)	> 100 µM (inactive)	> 100 µM (inactive)
CC(=O)O/N=C(/C)c1ccccc1O	> 100 µM (inactive)	> 100 µM (inactive)	–	> 100 µM (inactive)	> 100 µM (inactive)	> 100 µM (inactive)	> 100 µM (inactive)	> 100 µM (inactive)	> 100 µM (inactive)	> 100 µM (inactive)	> 100 µM (inactive)	> 100 µM (inactive)	> 100 µM (inactive)	> 100 µM (inactive)	> 100 µM (inactive)	–	> 100 µM (inactive)
C1OC1C1CO1 (stereo not given)	> 100 µM (inactive)	95.1 µM (inactive)	> 100	3.14 µM (inactive)	> 100 µM (inactive)	80.2 µM (inactive)	> 100 µM (inactive)	> 100 µM (inactive)	33.6 µM (inactive)	> 100 µM (inactive)	10.3 µM (inactive)	57.8 µM (inactive)	86.3 µM (inactive)	20.1 µM (inactive)	13.6 µM (inactive)	–	> 100 µM (inactive)
